According to patent publication US9018214B2, “Bicyclic heterocycle compounds and their uses in therapy” (Astex Therapeutics Limited, priority 2011, dated 2015):
Counter-ions that a name gives are not always drawn. Like-named read-outs stand apart in the source and are kept apart here.

What was measured:
[1] = target: BIR3 domain of human XIAP (residues 252-350) (Homo sapiens (Human), UniProt P98170); assay: XIAP in vitro competitive displacement binding assay (fluorescence polarization); conditions: read-out: IC50 or PI Xiap: IC50
[2] = target: BIR3 domain of human cIAP-1 (residues 267-363) (Homo sapiens (Human), UniProt Q13490); assay: cIAP-1 in vitro competitive displacement binding assay (fluorescence polarization; Probe A AVPIK(5&6FAM)-amide or Probe B AbuRPFK(5&6FAM)-amide); conditions: for inhibition at 0.01 µM: 3 h, Probe B, read-out: IC50 or PI cIAP1: PI
[3] = tested on: EVSA-T (human breast carcinoma); assay: Anti-proliferative activity, Alamar Blue assay, EVSA-T; format: cell-based; conditions: Homo sapiens, EVSA-T; for EC50: read-out: EVSA-T prolif (EC50)
[4] = Probe B AbuRPFK(5&6FAM)-amide, read-out: IC50 or PI cIAP1: IC50
[5] = read-out: IC50 or PI cIAP1: IC50

Question: How did the IC50 [1] turn out when `COC[C@H]1CN[C@H](C)CN1CC(=O)N1CC(C)(C)c2cnc(Oc3ccccc3)cc21` [Example 74, 1-(3,3-Dimethyl-6-phenoxy-2,3-dihydro-pyrrolo[3,2-c]pyridin-1-yl)-2-((2R,5R)-2-methoxymethyl-5-methyl-piperazin-1-yl)-ethanone hydrochloride salt] was run?
Answer: The IC50 was 390 nM.

Question: And the IC50 [2, 4]?
Answer: The IC50 was 99 nM.

Question: And the EC50 ([3]; 72 hours, Alamar Blue)?
Answer: The EC50 was 560 nM.

Question: `COC[C@H]1CN[C@H](C)CN1CC(=O)N1CC2(CN(C(C)=O)C2)c2ccc(Cc3ccccc3)cc21` [Example 76, 1-{1-Acetyl-6′-benzyl-1′,2′-dihydrospiro[azetidine-3,3′-indole]-1′-yl}-2-[(2R,5R)-2-(methoxymethyl)-5-methylpiperazin-1-yl]ethan-1-one hydrochloride salt] was tested. Which IC50 [1] did it give?
Answer: Its IC50 is 64 nM.

Question: What about the IC50 [2, 4] of the same compound?
Answer: The IC50 was 16 nM.

Question: And the EC50 ([3]; 72 hours, Alamar Blue)?
Answer: The EC50 was 780 nM.

Question: How did the IC50 [1] turn out when `COC[C@H]1CN[C@H](C)CN1CC(=O)N1CC(C)(C)c2cnc(Cc3ccccc3F)cc21` [Example 77, 1-{6-[(2-Fluorophenyl)methyl]-3,3-dimethyl-1H,2H,3H-pyrrolo[3,2-c]pyridin-1-yl}-2-[(2R,5R)-2-(methoxy-methyl)-5-methyl-piperazin-1-yl]ethan-1-one] was run?
Answer: The IC50 was 170 nM.

Question: What about the IC50 [2, 4] of the same compound?
Answer: The IC50 was 9 nM.

Question: What about the EC50 ([3]; 72 hours, Alamar Blue) of the same compound?
Answer: Its EC50 is 160 nM.

Question: Which IC50 [1] does the source give for `COC[C@H]1CN[C@H](C)CN1CC(=O)N1CC(C)(C)c2cnc(Cc3ccccc3Cl)cc21` [Example 78, 1-{6-[(2-Chlorophenyl)methyl]-3,3-dimethyl-1H,2H,3H-pyrrolo[3,2-c]pyridin-1-yl}-2-[(2R,5R)-2-(methoxy-methyl)-5-methyl-piperazin-1-yl]ethan-1-one hydrochloride salt] here?
Answer: Its IC50 is 530 nM.

Question: And the IC50 [2, 4]?
Answer: Its IC50 is 35 nM.

Question: What about the EC50 ([3]; 72 hours, Alamar Blue) of the same compound?
Answer: The EC50 was 1900 nM.

Question: `COC[C@H]1CN[C@H](C)CN1CC(=O)N1CC(C)(C)c2cnc(CC3CCCCC3)cc21` [Example 79, 1-[6-(Cyclohexylmethyl)-3,3-dimethyl-1H,2H,3H-pyrrolo[3,2-c]pyridin-1-yl]-2-[(2R,5R)-2-(methoxymethyl)-5-methylpiperazin-1-yl]ethan-1-one] was tested. Which IC50 [1] did it give?
Answer: The IC50 was 1000 nM.

Question: What about the IC50 [2, 5] of the same compound?
Answer: Its IC50 is 25 nM.

Question: What about the EC50 ([3]; 72 hours, Alamar Blue) of the same compound?
Answer: Its EC50 is 490 nM.

Question: Which results are given for `COC[C@H]1CN[C@H](C)CN1CC(=O)N1CC(C)(C)c2cnc(Cc3cccc(Cl)c3)cc21` [Example 86, 1-{6-[(3-Chlorophenyl)methyl]-3,3-dimethyl-1H,2H,3H-pyrrolo[3,2-c]pyridin-1-yl}-2-[(2R,5R)-2-(methoxymethyl)-5-methylpiperazin-1-yl]ethan-1-one, hydrochloride salt]?
Answer: IC50 [1]: 290 nM; IC50 [2]: < 1000 nM; IC50 [2, 4]: 12 nM; EC50 ([3]; 72 hours, Alamar Blue): 310 nM

Question: What does the source list for `COC[C@H]1CN[C@H](C)CN1CC(=O)N1CC(C)(C)c2cnc(C(C)c3ccccc3)cc21` (stereo partly drawn) [Example 87, 1-[3,3-Dimethyl-6-(1-phenylethyl)-1H,2H,3H-pyrrolo[3,2-c]pyridin-1-yl]-2-[(2R,5R)-2-(methoxymethyl)-5-methylpiperazin-1-yl]ethan-1-one, hydrochloride salt]?
Answer: IC50 [1]: 240 nM; IC50 [2]: < 1000 nM; IC50 [2, 4]: 24 nM; EC50 ([3]; 72 hours, Alamar Blue): 510 nM

Question: `COC[C@H]1CN[C@H](C)CN1CC(=O)N1CC(C)(C)c2cnc(Cc3ccc(F)cc3)cc21` [Example 88, 1-{6-[(4-Fluoro-phenyl)methyl]-3,3-dimethyl-1H,2H,3H-pyrrolo[3,2-c]pyridin-1-yl}-2-[(2R,5R)-2-(methoxy-methyl)-5-methyl-piperazin-1-yl]ethan-1-one, hydrochloride salt] was tested. Which IC50 [1] did it give?
Answer: The IC50 was 170 nM.

Question: What about the inhibition at 0.01 µM [2] of the same compound?
Answer: Its inhibition at 0.01 µM is 84%.

Question: What about the EC50 ([3]; 72 hours, Alamar Blue) of the same compound?
Answer: The EC50 was 40 nM.

Question: With `COC[C@H]1CN[C@H](C)CN1CC(=O)N1CC(C)(C)c2cnc(C3=CCCC3)cc21` [Example 90, 1-[6-(Cyclopent-1-en-1-yl)-3,3-dimethyl-1H,2H,3H-pyrrolo[3,2-c]pyridin-1-yl]-2-[(2R,5R)-2-(methoxymethyl)-5-methylpiperazin-1-yl]ethan-1-one, hydrochloride salt] as the compound, how does the IC50 [1] read?
Answer: Its IC50 is 270 nM.

Question: What about the IC50 [2, 4] of the same compound?
Answer: Its IC50 is 79 nM.

Question: And the EC50 ([3]; 72 hours, Alamar Blue)?
Answer: Its EC50 is 330 nM.

Question: With `CC[C@H]1CN[C@H](C)CN1CC(=O)N1CC(C)(C)c2cnc(Cc3ccccc3)cc21` [Example 91, 1-{6-Benzyl-3,3-dimethyl-1H,2H,3H-pyrrolo[3,2-c]pyridin-1-yl}-2-[(2S,5R)-2-ethyl-5-methylpiperazin-1-yl]ethan-1-one, hydrochloride salt] as the compound, how does the IC50 [1] read?
Answer: Its IC50 is 290 nM.

Question: What about the IC50 [2, 4] of the same compound?
Answer: The IC50 was 19 nM.

Question: And the EC50 ([3]; 72 hours, Alamar Blue)?
Answer: The EC50 was 200 nM.

Question: With `COC[C@H]1CN[C@H](C)CN1CC(=O)N1CC(C)(C)c2cnc(C3CCCC3)cc21` [Example 92, 1-{6-Cyclopentyl-3,3-dimethyl-1H,2H,3H-pyrrolo[3,2-c]pyridin-1-yl}-2-[(2R,5R)-2-(methoxymethyl)-5-methylpiperazin-1-yl]ethan-1-one, hydrochloride salt] as the compound, how does the IC50 [1] read?
Answer: The IC50 was 1200 nM.

Question: And the IC50 [2, 4]?
Answer: Its IC50 is 270 nM.

Question: What about the EC50 ([3]; 72 hours, Alamar Blue) of the same compound?
Answer: Its EC50 is 4800 nM.

Question: Which results are given for `C[C@@H]1CN(CC(=O)N2CC(C)(C)c3cnc(Cc4ccccc4)cc32)[C@@H](C(=O)N2CCC2)CN1` [Example 100, 2-[(2R,5R)-2-[(Azetidin-1-yl)carbonyl]-5-methyl-piperazin-1-yl]-1-{6-benzyl-3,3-dimethyl-1H,2H,3H-pyrrolo[3,2-c]pyridin-1-yl}ethan-1-one, hydrochloride salt]?
Answer: IC50 [1]: 120 nM; IC50 [2, 4]: 14 nM; EC50 ([3]; 72 hours, Alamar Blue): 450 nM

Question: With `C[C@@H]1CN(CC(=O)N2CC(C)(C)c3cnc(Cc4ccccc4)cc32)[C@@H](C(=O)N2CCOCC2)CN1` [Example 101, 1-{6-Benzyl-3,3-dimethyl-1H,2H,3H-pyrrolo[3,2-c]pyridin-1-yl}-2-[(2R,5R)-5-methyl-2-[(morpholin-4-yl)carbonyl]piperazin-1-yl]ethan-1-one, hydrochloride salt] as the compound, how does the IC50 [1] read?
Answer: Its IC50 is 72 nM.

Question: And the inhibition at 0.01 µM [2]?
Answer: The inhibition at 0.01 µM was 62%.

Question: And the EC50 ([3]; 72 hours, Alamar Blue)?
Answer: The EC50 was 140 nM.

Question: For `COC[C@H]1CN[C@H](C)CN1CC(=O)N1CC(C)(C)c2cnc(C#N)cc21` [Example 103, 1-{2-[(2R,5R)-2-(Methoxymethyl)-5-methylpiperazin-1-yl]acetyl}-3,3-dimethyl-1H,2H,3H-pyrrolo[3,2-c]pyridine-6-carbonitrile], which IC50 [1] is on record?
Answer: Its IC50 is 420 nM.

Question: What about the IC50 [2] of the same compound?
Answer: Its IC50 is under 1000 nM.

Question: What about the IC50 [2, 5] of the same compound?
Answer: The IC50 was 870 nM.

Question: And the inhibition at 10 µM ([3]; at 10 μM, read-out: EVSA-T prolif: % inhibition)?
Answer: The inhibition at 10 µM was 12%.

Question: For `COC[C@H]1CN[C@H](C)CN1CC(=O)N1CC(C)(C)c2cnc(Cc3ccc(F)cc3F)cc21` [Example 105, 1-{6-[(2,4-Difluorophenyl)methyl]-3,3-dimethyl-1H,2H,3H-pyrrolo[3,2-c]pyridin-1-yl}-2-[(2R,5R)-2-(methoxymethyl)-5-methylpiperazin-1-yl]ethan-1-one, hydrochloride salt], which IC50 [1] is on record?
Answer: The IC50 was 190 nM.

Question: And the inhibition at 0.01 µM [2]?
Answer: Its inhibition at 0.01 µM is 74%.

Question: And the EC50 ([3]; 72 hours, Alamar Blue)?
Answer: Its EC50 is 55 nM.

Question: `COC[C@H]1CN[C@H](C)CN1CC(=O)N1CC(C)(C)c2cnc(C3=CCCCC3)cc21` [Example 106, 1-[6-(Cyclohex-1-en-1-yl)-3,3-dimethyl-1H,2H,3H-pyrrolo[3,2-c]pyridin-1-yl]-2-[(2R,5R)-2-(methoxymethyl)-5-methylpiperazin-1-yl]ethan-1-one, hydrochloride salt] was tested. Which IC50 [1] did it give?
Answer: Its IC50 is 110 nM.

Question: And the IC50 [2, 4]?
Answer: The IC50 was 23 nM.

Question: And the EC50 ([3]; 72 hours, Alamar Blue)?
Answer: Its EC50 is 440 nM.

Question: How did the IC50 [1] turn out when `C[C@@H]1CN(CC(=O)N2CC3(Cc4ccccc4C3)c3ccc(C#N)cc32)[C@@H](C(=O)N2CCOCC2)CN1` [Example 109, 1′-{2-[(2R,5R)-5-Methyl-2-[(morpholin-4-yl)carbonyl]piperazin-1-yl]acetyl}-1,1′,2′,3-tetrahydro-spiro[indene-2,3′-indole]-6′-carbonitrile, hydrochloride salt] was run?
Answer: The IC50 was 63 nM.

Question: What about the IC50 [2, 4] of the same compound?
Answer: Its IC50 is 150 nM.

Question: And the EC50 ([3]; 72 hours, Alamar Blue)?
Answer: Its EC50 is 4800 nM.

Question: Which results are given for `COC[C@H]1CN[C@H](C)CN1CC(=O)N1CC(C)(C)c2cnc(Oc3ccccc3Cl)cc21` [Example 110, 1-[6-(2-Chloro-phenoxy)-3,3-dimethyl-2,3-dihydro-pyrrolo[3,2-c]pyridin-1-yl]-2-((2R,5R)-2-methoxymethyl-5-methyl-piperazin-1-yl)-ethanone, hydrochloride salt]?
Answer: IC50 [1]: 75 nM; IC50 [2, 4]: 35 nM; EC50 ([3]; 72 hours, Alamar Blue): 600 nM

Question: What does the source list for `C[C@@H]1CN(CC(=O)N2CC(C)(C)c3ccc(Cc4ccccc4)cc32)[C@@H](C(=O)N2CCOCC2)CN1` [Example 111, 1-(6-Benzyl-3,3-dimethyl-2,3-dihydro-indol-1-yl)-2-[(2R,5R)-5-methyl-2-(morpholine-4-carbonyl)-piperazin-1-yl]-ethanone, hydrochloride salt]?
Answer: IC50 [1]: 74 nM; inhibition at 0.01 µM [2]: 63%; EC50 ([3]; 72 hours, Alamar Blue): 71 nM

Question: With `C[C@@H]1CN(CC(=O)N2CC(C)(C)c3cnc(Cc4ccccc4)cc32)[C@@H](Cn2cccn2)CN1` [Example 112, 1-(6-Benzyl-3,3-dimethyl-2,3-dihydro-pyrrolo[3,2-c]pyridin-1-yl)-2-((2R,5R)-5-methyl-2-pyrazol-1-ylmethyl-piperazin-1-yl)-ethanone] as the compound, how does the IC50 [1] read?
Answer: Its IC50 is 67 nM.

Question: And the inhibition at 0.01 µM [2]?
Answer: The inhibition at 0.01 µM was 69%.

Question: What about the EC50 ([3]; 72 hours, Alamar Blue) of the same compound?
Answer: The EC50 was 95 nM.

Question: For `COC[C@H]1CN[C@H](C)CN1CC(=O)N1CC(C)(C)c2cnc(C3CCCCC3)cc21` [Example 118, 1-{6-Cyclohexyl-3,3-dimethyl-1H,2H,3H-pyrrolo[3,2-c]pyridin-1-yl}-2-[(2R,5R)-2-(methoxymethyl)-5-methylpiperazin-1-yl]ethan-1-one dihydrochloride], which IC50 [1] is on record?
Answer: The IC50 was 710 nM.

Question: What about the IC50 [2, 5] of the same compound?
Answer: The IC50 was 240 nM.

Question: And the EC50 ([3]; 72 h)?
Answer: The EC50 was 3400 nM.

Question: For `COC[C@H]1CN[C@H](C)CN1CC(=O)N1CC2(Cc3ccccc3C2)c2ccc(Cl)cc21` [Example 120, 1-{6′-Chloro-1,1′,2′,3-tetrahydrospiro[indene-2,3′-indole]-1′-yl}-2-[(2R,5R)-2-(methoxymethyl)-5-methylpiperazin-1-yl]ethan-1-one], which IC50 [1] is on record?
Answer: Its IC50 is 260 nM.

Question: What about the IC50 [2, 4] of the same compound?
Answer: Its IC50 is 170 nM.

Question: And the EC50 ([3]; 72 hours, Alamar Blue)?
Answer: The EC50 was 6800 nM.
